# Laboratory results taken from patent US12655116B2, “Substituted isophthalic acid diamides” (Bayer Aktiengesellschaft, priority 2020, dated 2026).
# What was measured:
# VIOTR [1] = test: Post-emergence herbicidal action against VIOTR; assay type: in vivo, Viola tricolor
# In short: (§1)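 Sandy loam, greenhouse; treatment 2–3 weeks after sowing, one-leaf stage. Aqueous suspension or emulsion from WP/EC sprayed on foliage (600–800 l/ha, 0.2% wetting agent). Readout: visual % action, ~3 weeks.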
# ECHCG [2] = test: Pre-emergence herbicidal action against ECHCG; assay type: in vivo, Echinochloa crus-galli
# In short: (§2)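 Seeds sown in sandy loam, soil-covered; compound sprayed on soil surface pre-emergence. Application: WP/EC, 600–800 l/ha, 0.2% wetting agent. Readout: visual % damage at 3 weeks.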
# MATIN [3] = test: Post-emergence herbicidal action against MATIN; assay type: in vivo, Matricaria inodora
# In short: as §1
# AMARE [4] = test: Pre-emergence herbicidal action against AMARE; assay type: in vivo, Amaranthus retroflexus
# In short: as §2
# ABUTH [5] = test: Post-emergence herbicidal action against ABUTH; assay type: in vivo, Abutilon theophrasti; details: visual assessment about 3 weeks after treatment vs untreated controls
# In short: as §1
# PHBPU [6] = test: Pre-emergence herbicidal action against PHBPU; assay type: in vivo, Pharbitis purpurea; details: dosage 80 g/ha
# In short: as §2
# LOLRI = test: Pre-emergence herbicidal action against LOLRI; assay type: in vivo, Lolium rigidum; details: 80 g/ha
# In short: as §2
# VERPE [7] = test: Post-emergence herbicidal action against VERPE; assay type: in vivo, Veronica persica
# In short: as §1
# ECHCG [8] = test: Post-emergence herbicidal action against ECHCG; assay type: in vivo, Echinochloa crus-galli; details: dosage 20 g/ha
# In short: as §1
# POLCO = test: Pre-emergence herbicidal action against POLCO; assay type: in vivo, Polygonum convolvulus; details: dosage 80 g/ha
# In short: as §2
# MATIN [9] = test: Pre-emergence herbicidal action against MATIN; assay type: in vivo, Matricaria inodora
# In short: as §2
# VIOTR [10] = test: Pre-emergence herbicidal action against VIOTR; assay type: in vivo, Viola tricolor
# In short: as §2
# AMARE [11] = test: Post-emergence herbicidal action against AMARE; assay type: in vivo, Amaranthus retroflexus; details: 20 g/ha, visual assessment about 3 weeks after treatment, 100% = plants have died, 0% = like control plants
# In short: as §1
# ALOMY [12] = test: Post-emergence herbicidal action against ALOMY; assay type: in vivo, Alopecurus myosuroides; details: Alopecurus myosuroides, 504 h, visual assessment about 3 weeks after treatment vs untreated controls
# In short: as §1
# ABUTH [13] = test: Pre-emergence herbicidal action against ABUTH; assay type: in vivo, Abutilon theophrasti
# In short: as §2
# VERPE [14] = test: Pre-emergence herbicidal action against VERPE; assay type: in vivo, Veronica persica
# In short: as §2
# SETVI [15] = test: Pre-emergence herbicidal action against SETVI; assay type: in vivo, Setaria viridis; details: dosage 80 g/ha
# In short: as §2
# ALOMY [16] = test: Pre-emergence herbicidal action against ALOMY; assay type: in vivo, Alopecurus myosuroides; details: pre-emergence
# In short: as §2
# DIGSA [17] = test: Pre-emergence herbicidal action against DIGSA; assay type: in vivo, Digitaria sanguinalis
# In short: as §2
# DIGSA [18] = test: Post-emergence herbicidal action against DIGSA; assay type: in vivo, Digitaria sanguinalis
# In short: as §1
# PHBPU [19] = test: Post-emergence herbicidal action against PHBPU; assay type: in vivo, Pharbitis purpurea
# In short: as §1
# AVEFA = test: Pre-emergence herbicidal action against AVEFA; assay type: in vivo, Avena fatua; details: 80 g/ha, pre-emergence
# In short: as §2
# SETVI [20] = test: Post-emergence herbicidal action against SETVI; assay type: in vivo, Setaria viridis
# In short: as §1
# [21] = Tripleurospermum inodorum, 504 h, dosage 20 g/ha
# [22] = 80 g/ha, scored visually after 3 weeks vs untreated controls (100% = plants have died, 0% = like control plants)
smiles,measurement,setting,value
CCCNC(=O)c1c(C(F)(F)F)ccc(C(=O)Nc2nnnn2C)c1C [Example 1-32],pest or weed control at 20 g/ha,"VIOTR [1]; Viola tricolor, 504 h, 20 g/ha",80%
same,pest or weed control at 20 g/ha,"ECHCG [2]; Echinochloa crus-galli, 504 h, 20 g/ha",80%
same,pest or weed control at 80 g/ha,"ECHCG [2]; Echinochloa crus-galli, 504 h, 80 g/ha",100%
same,pest or weed control at 5 g/ha,"MATIN [3]; Tripleurospermum inodorum, 504 h, dosage 5 g/ha",80%
same,pest or weed control at 20 g/ha,MATIN [3]; [21],90%
same,pest or weed control at 20 g/ha,"AMARE [4]; Amaranthus retroflexus, 504 h, 20 g/ha, scored visually after 3 weeks vs untreated controls, 100% = plants have died, 0% = like control plants",100%
same,pest or weed control at 80 g/ha,"AMARE [4]; Amaranthus retroflexus, 504 h, 80 g/ha, scored visually after 3 weeks vs untreated controls, 100% = plants have died, 0% = like control plants",100%
same,pest or weed control at 5 g/ha,"ABUTH [5]; Abutilon theophrasti, 504 h, dosage 5 g/ha",90%
same,pest or weed control at 20 g/ha,"ABUTH [5]; Abutilon theophrasti, 504 h, dosage 20 g/ha",90%
same,pest or weed control at 80 g/ha,"PHBPU [6]; Ipomoea purpurea, 504 h",80%
same,pest or weed control at 80 g/ha,"LOLRI; Lolium rigidum, 504 h",90%
same,pest or weed control at 20 g/ha,"VERPE [7]; Veronica persica, 504 h, 20 g/ha",90%
same,pest or weed control at 20 g/ha,"ECHCG [8]; Echinochloa crus-galli, 504 h",90%
same,pest or weed control at 80 g/ha,"POLCO; Fallopia convolvulus, 504 h",100%
same,pest or weed control at 20 g/ha,MATIN [9]; [21],100%
same,pest or weed control at 80 g/ha,"MATIN [9]; Tripleurospermum inodorum, 504 h, dosage 80 g/ha",100%
same,pest or weed control at 80 g/ha,"VIOTR [10]; Viola tricolor, 504 h, dosage 80 g/ha",100%
same,pest or weed control at 20 g/ha,"AMARE [11]; Amaranthus retroflexus, 504 h",90%
same,pest or weed control at 5 g/ha,ALOMY [12]; dosage 5 g/ha,80%
same,pest or weed control at 20 g/ha,ALOMY [12]; dosage 20 g/ha,90%
same,pest or weed control at 80 g/ha,"ABUTH [13]; Abutilon theophrasti, 504 h, 80 g/ha, scored visually after 3 weeks vs untreated controls (100% = plants have died, 0% = like control plants)",100%
same,pest or weed control at 20 g/ha,"ABUTH [13]; Abutilon theophrasti, 504 h, dosage 20 g/ha, scored visually after 3 weeks vs untreated controls, 100% = plants have died, 0% = like control plants, read-out: Pre-emergence action against ABUTH (herbicidal activity in percent)",100%
same,pest or weed control at 20 g/ha,"VERPE [14]; Veronica persica, 504 h, dosage 20 g/ha",80%
same,pest or weed control at 80 g/ha,"VERPE [14]; Veronica persica, 504 h, dosage 80 g/ha",100%
same,pest or weed control at 80 g/ha,"SETVI [15]; Setaria viridis, 504 h",100%
same,pest or weed control at 80 g/ha,"ALOMY [16]; Alopecurus myosuroides, 504 h, 80 g/ha, scored visually after 3 weeks vs untreated controls (100% = plants have died, 0% = like control plants)",100%
same,pest or weed control at 20 g/ha,"ALOMY [16]; Alopecurus myosuroides, 504 h, 20 g/ha, scored visually after 3 weeks, 100% = plants have died, 0% = like control plants",80%
same,pest or weed control at 20 g/ha,"DIGSA [17]; Digitaria sanguinalis, 504 h, dosage 20 g/ha",100%
same,pest or weed control at 80 g/ha,"DIGSA [17]; Digitaria sanguinalis, 504 h, dosage 80 g/ha",100%
Cn1nnnc1NC(=O)c1ccc(C(F)(F)F)c(C(=O)NCC2CC2)c1C1CC1 [Example 1-289],Post-emergence action against VIOTR in %,VIOTR [1]; 5 g/ha,80%
same,Post-emergence action against VIOTR in %,VIOTR [1]; 20 g/ha,90%
same,Pre-emergence action against ECHCG in %,ECHCG [2]; 20 g/ha,80%
same,Pre-emergence action against ECHCG in %,ECHCG [2]; 80 g/ha,100%
same,Post-emergence action against MATIN in %,MATIN [3]; dosage 20 g/ha,80%
same,Pre-emergence action against AMARE in %,"AMARE [4]; 20 g/ha, scored visually after 3 weeks vs untreated controls, 100% = plants have died, 0% = like control plants",90%
same,Pre-emergence action against AMARE in %,AMARE [4]; [22],100%
same,Post-emergence action against ABUTH in %,ABUTH [5]; dosage 5 g/ha,80%
same,Post-emergence action against ABUTH in %,ABUTH [5]; dosage 20 g/ha,80%
same,Pre-emergence action against PHBPU in %,PHBPU [6],80%
same,Pre-emergence action against LOLRI in %,LOLRI,80%
same,Post-emergence action against VERPE in %,VERPE [7]; 5 g/ha,80%
same,Post-emergence action against VERPE in %,VERPE [7]; 20 g/ha,90%
same,Post-emergence action against ECHCG in %,ECHCG [8],80%
same,Pre-emergence action against POLCO in %,POLCO,80%
same,Post-emergence action against DIGSA in %,DIGSA [18]; 5 g/ha,90%
same,Post-emergence action against DIGSA,DIGSA [18]; 20 g/ha,90%
same,Pre-emergence action against MATIN in %,MATIN [9]; dosage 20 g/ha,90%
same,Pre-emergence action against MATIN in %,MATIN [9]; dosage 80 g/ha,100%
same,Pre-emergence action against VIOTR in %,VIOTR [10]; dosage 20 g/ha,100%
same,Pre-emergence action against VIOTR in %,VIOTR [10]; dosage 80 g/ha,100%
same,Post-emergence action at 20 g/ha against AMARE in %,AMARE [11],90%
same,Pre-emergence action against ABUTH (herbicidal activity),ABUTH [13]; [22],100%
same,Pre-emergence action against ABUTH (herbicidal activity in percent),"ABUTH [13]; dosage 20 g/ha, scored visually after 3 weeks vs untreated controls, 100% = plants have died, 0% = like control plants",100%
same,Pre-emergence action against VERPE in %,VERPE [14]; dosage 80 g/ha,100%
same,Post-emergence action against PHBPU in %,PHBPU [19]; dosage 5 g/ha,80%
same,Post-emergence action against PHBPU in %,PHBPU [19]; dosage 20 g/ha,90%
same,Pre-emergence action against AVEFA in %,AVEFA,80%
same,Pre-emergence action against SETVI in %,SETVI [15],80%
same,Post-emergence action against SETVI in %,SETVI [20]; dosage 5 g/ha,80%
same,Post-emergence action against SETVI in %,SETVI [20]; dosage 20 g/ha,90%
same,Pre-emergence action against ALOMY (herbicidal activity),ALOMY [16]; [22],90%
same,Pre-emergence action against DIGSA in %,DIGSA [17]; dosage 20 g/ha,100%
same,Pre-emergence action against DIGSA in %,DIGSA [17]; dosage 80 g/ha,100%
